According to the NIST ThermoML archive (doi:10.1021/je900596d):
Numbers after ± are expanded uncertainties.

Conditions: for mass density: Vibrating tube method; for vapor or sublimation pressure: Closed cell (Static) method

FC(F)=C(F)C(F)(F)F [hexafluoropropene]
Conditions	mass density [kg/m3]
355.27 K, 1594.4 kPa, Fluid (supercritical or subcritical phases)	103.05 ± 0.15
355.27 K, 1615.6 kPa, Fluid (supercritical or subcritical phases)	104.91 ± 0.16
355.27 K, 1637.4 kPa, Fluid (supercritical or subcritical phases)	106.88 ± 0.16
355.27 K, 1658.5 kPa, Fluid (supercritical or subcritical phases)	108.66 ± 0.16
355.27 K, 1679.5 kPa, Fluid (supercritical or subcritical phases)	110.49 ± 0.16
355.27 K, 1700.6 kPa, Fluid (supercritical or subcritical phases)	112.4 ± 0.17
355.27 K, 1722 kPa, Fluid (supercritical or subcritical phases)	114.41 ± 0.17
355.27 K, 1742.9 kPa, Fluid (supercritical or subcritical phases)	116.28 ± 0.17
355.27 K, 1765.2 kPa, Fluid (supercritical or subcritical phases)	118.41 ± 0.18
355.27 K, 1787.1 kPa, Fluid (supercritical or subcritical phases)	120.47 ± 0.18
355.27 K, 1808.3 kPa, Fluid (supercritical or subcritical phases)	122.49 ± 0.18
355.27 K, 1829.9 kPa, Fluid (supercritical or subcritical phases)	124.54 ± 0.19
355.27 K, 1850.6 kPa, Fluid (supercritical or subcritical phases)	126.59 ± 0.19
355.27 K, 1872.5 kPa, Fluid (supercritical or subcritical phases)	128.81 ± 0.2
355.27 K, 1894.5 kPa, Fluid (supercritical or subcritical phases)	131.08 ± 0.2
355.27 K, 1916.5 kPa, Fluid (supercritical or subcritical phases)	133.35 ± 0.2
355.27 K, 1938.7 kPa, Fluid (supercritical or subcritical phases)	135.65 ± 0.21
355.27 K, 1959.7 kPa, Fluid (supercritical or subcritical phases)	137.89 ± 0.21
355.27 K, 1982.8 kPa, Fluid (supercritical or subcritical phases)	140.34 ± 0.22
355.27 K, 2005.5 kPa, Fluid (supercritical or subcritical phases)	142.79 ± 0.22
355.27 K, 2026.6 kPa, Fluid (supercritical or subcritical phases)	145.09 ± 0.23
355.27 K, 2048.1 kPa, Fluid (supercritical or subcritical phases)	147.46 ± 0.23
355.27 K, 2070.2 kPa, Fluid (supercritical or subcritical phases)	150.03 ± 0.24
355.27 K, 2091.7 kPa, Fluid (supercritical or subcritical phases)	152.48 ± 0.24
355.27 K, 2135.3 kPa, Fluid (supercritical or subcritical phases)	157.72 ± 0.25
355.27 K, 2158.3 kPa, Fluid (supercritical or subcritical phases)	160.53 ± 0.26
355.27 K, 2179.4 kPa, Fluid (supercritical or subcritical phases)	163.15 ± 0.26
355.27 K, 2202.1 kPa, Fluid (supercritical or subcritical phases)	165.99 ± 0.27
355.27 K, 2224 kPa, Fluid (supercritical or subcritical phases)	168.96 ± 0.28
355.27 K, 2247.3 kPa, Fluid (supercritical or subcritical phases)	172.07 ± 0.29
355.27 K, 2269.2 kPa, Fluid (supercritical or subcritical phases)	174.95 ± 0.3
355.27 K, 2292 kPa, Fluid (supercritical or subcritical phases)	178.14 ± 0.3
355.27 K, 2312.5 kPa, Fluid (supercritical or subcritical phases)	181.03 ± 0.31
355.27 K, 2334.2 kPa, Fluid (supercritical or subcritical phases)	184.18 ± 0.32
355.27 K, 2357.3 kPa, Fluid (supercritical or subcritical phases)	187.61 ± 0.34
355.27 K, 2380.5 kPa, Fluid (supercritical or subcritical phases)	191.26 ± 0.34
355.27 K, 2392.5 kPa, Fluid (supercritical or subcritical phases)	193.1 ± 0.35
355.27 K, 2415.5 kPa, Fluid (supercritical or subcritical phases)	196.68 ± 0.36
355.27 K, 2439.9 kPa, Fluid (supercritical or subcritical phases)	200.64 ± 0.38
355.27 K, 2460.5 kPa, Fluid (supercritical or subcritical phases)	204.27 ± 0.38
355.27 K, 2484.5 kPa, Fluid (supercritical or subcritical phases)	208.35 ± 0.39
355.27 K, 2507 kPa, Fluid (supercritical or subcritical phases)	212.34 ± 0.41
355.27 K, 2520.2 kPa, Fluid (supercritical or subcritical phases)	214.82 ± 0.43
355.27 K, 2544.4 kPa, Fluid (supercritical or subcritical phases)	219.44 ± 0.45
355.27 K, 2556.6 kPa, Fluid (supercritical or subcritical phases)	221.88 ± 0.45
355.27 K, 2578.3 kPa, Fluid (supercritical or subcritical phases)	226.29 ± 0.47
355.27 K, 2599.8 kPa, Fluid (supercritical or subcritical phases)	230.72 ± 0.5
355.27 K, 2622.7 kPa, Fluid (supercritical or subcritical phases)	235.78 ± 0.52
355.27 K, 2645.2 kPa, Fluid (supercritical or subcritical phases)	240.85 ± 0.54
355.27 K, 2666.2 kPa, Fluid (supercritical or subcritical phases)	245.89 ± 0.57
355.27 K, 2688.5 kPa, Fluid (supercritical or subcritical phases)	251.47 ± 0.61
355.27 K, 2710.9 kPa, Fluid (supercritical or subcritical phases)	257.56 ± 0.66
355.27 K, 2733.3 kPa, Fluid (supercritical or subcritical phases)	263.91 ± 0.73
355.27 K, 2754.7 kPa, Fluid (supercritical or subcritical phases)	270.59 ± 0.74
355.27 K, 2776.5 kPa, Fluid (supercritical or subcritical phases)	277.69 ± 0.8
355.27 K, 2797.6 kPa, Fluid (supercritical or subcritical phases)	285.33 ± 0.87
355.27 K, 2818.7 kPa, Fluid (supercritical or subcritical phases)	293.63 ± 0.97
355.27 K, 2839.2 kPa, Fluid (supercritical or subcritical phases)	302.86 ± 1.1
355.27 K, 2859.6 kPa, Fluid (supercritical or subcritical phases)	313.18 ± 1.3
355.27 K, 2880.7 kPa, Fluid (supercritical or subcritical phases)	325.44 ± 1.4
355.27 K, 2900.2 kPa, Fluid (supercritical or subcritical phases)	339.29 ± 3.7
355.27 K, 2901.3 kPa, Fluid (supercritical or subcritical phases)	340.48 ± 4.2
355.27 K, 2902.9 kPa, Fluid (supercritical or subcritical phases)	341.95 ± 9.1
355.27 K, 2904 kPa, Fluid (supercritical or subcritical phases)	342.82 ± 9.8
355.27 K, 2905.6 kPa, Fluid (supercritical or subcritical phases)	344.36 ± 11
355.27 K, 2906.7 kPa, Fluid (supercritical or subcritical phases)	345.34 ± 12
355.27 K, 2908.4 kPa, Fluid (supercritical or subcritical phases)	347.2 ± 7.7
355.27 K, 2909.4 kPa, Fluid (supercritical or subcritical phases)	348.62 ± 7.7
355.27 K, 2910.6 kPa, Fluid (supercritical or subcritical phases)	349.91 ± 7.3
355.27 K, 2911.7 kPa, Fluid (supercritical or subcritical phases)	352.16 ± 2.5
355.27 K, 2913.4 kPa, Fluid (supercritical or subcritical phases)	357.67 ± 3
355.27 K, 2914.7 kPa, Fluid (supercritical or subcritical phases)	388.98 ± 7.1
355.27 K, 2915.5 kPa, Fluid (supercritical or subcritical phases)	400.54 ± 8.7
357.01 K, 3028.5 kPa, Liquid	789.77 ± 2.5
357.01 K, 3030.8 kPa, Liquid	791.93 ± 2.4
357.01 K, 3032.9 kPa, Liquid	793.76 ± 2.4
357.01 K, 3035 kPa, Liquid	795.08 ± 2.4
357.01 K, 3037.1 kPa, Liquid	796.63 ± 2.4
357.01 K, 3039.5 kPa, Liquid	798.44 ± 2.4
357.01 K, 3041.7 kPa, Liquid	799.96 ± 2.4
357.01 K, 3044 kPa, Liquid	801.6 ± 2.4
357.01 K, 3046 kPa, Liquid	802.75 ± 2.4
357.01 K, 3052 kPa, Liquid	806.74 ± 2.5
357.01 K, 3055.7 kPa, Liquid	808.82 ± 2.6
357.01 K, 3059.3 kPa, Liquid	810.72 ± 2.7
357.01 K, 3062.9 kPa, Liquid	812.63 ± 2.8
357.01 K, 3066.3 kPa, Liquid	814.7 ± 2.8
357.01 K, 3069.9 kPa, Liquid	816.53 ± 2.4
357.01 K, 3073.4 kPa, Liquid	818.11 ± 2.4
357.01 K, 3077.1 kPa, Liquid	819.71 ± 2.4
357.01 K, 3081.1 kPa, Liquid	821.77 ± 2.3
357.01 K, 3084.7 kPa, Liquid	823.28 ± 2.3
357.01 K, 3088.4 kPa, Liquid	824.79 ± 2.2
357.01 K, 3095.6 kPa, Liquid	828.01 ± 2.3
357.01 K, 3097.6 kPa, Liquid	828.88 ± 2.3
357.01 K, 3104.3 kPa, Liquid	831.16 ± 2
357.01 K, 3114.1 kPa, Liquid	834.77 ± 2
357.01 K, 3123.9 kPa, Liquid	838.1 ± 1.9
357.01 K, 3133.7 kPa, Liquid	841.6 ± 1.8
357.01 K, 3153.7 kPa, Liquid	847.97 ± 1.7
357.01 K, 3163.8 kPa, Liquid	850.53 ± 1.7
357.01 K, 3173.8 kPa, Liquid	853.47 ± 1.6
357.01 K, 3184.9 kPa, Liquid	856.37 ± 1.6
357.01 K, 3195 kPa, Liquid	858.9 ± 1.6
357.01 K, 3205.2 kPa, Liquid	861.29 ± 1.6
357.01 K, 3230.2 kPa, Liquid	866.99 ± 1.4
357.01 K, 3243.1 kPa, Liquid	869.66 ± 1.4
357.01 K, 3256.4 kPa, Liquid	872.23 ± 1.4
357.01 K, 3269.5 kPa, Liquid	874.91 ± 1.4
357.01 K, 3282.6 kPa, Liquid	877.54 ± 1.4
357.01 K, 3295.4 kPa, Liquid	879.85 ± 1.4
357.01 K, 3307.9 kPa, Liquid	882.22 ± 1.3
357.01 K, 3320.3 kPa, Liquid	884.31 ± 1.3
357.01 K, 3334 kPa, Liquid	886.47 ± 1.3
357.01 K, 3347.2 kPa, Liquid	888.84 ± 1.3
357.01 K, 3373.4 kPa, Liquid	892.84 ± 1.3
357.01 K, 3387.8 kPa, Liquid	895.05 ± 1.3
357.01 K, 3400.4 kPa, Liquid	896.81 ± 1.2
357.01 K, 3418.8 kPa, Liquid	899.41 ± 1.2
357.01 K, 3438.2 kPa, Liquid	902.07 ± 1.2
357.01 K, 3457.5 kPa, Liquid	904.69 ± 1.2
357.01 K, 3477.9 kPa, Liquid	907.3 ± 1.2
357.01 K, 3514.9 kPa, Liquid	911.85 ± 1.2
357.01 K, 3540.5 kPa, Liquid	914.94 ± 1.2
357.01 K, 3590.4 kPa, Liquid	920.73 ± 1.2
357.01 K, 3614.6 kPa, Liquid	923.49 ± 1.2
357.01 K, 3639.2 kPa, Liquid	926.14 ± 1.2
357.01 K, 3664.9 kPa, Liquid	928.77 ± 1.1
357.01 K, 3689.5 kPa, Liquid	931.28 ± 1.1
357.01 K, 3714.8 kPa, Liquid	933.72 ± 1.1
357.01 K, 3740.1 kPa, Liquid	936.03 ± 1.1
357.01 K, 3764.8 kPa, Liquid	938.27 ± 1.1

Liquid
Conditions	vapor or sublimation pressure [kPa]
356.24 K	2965.3 ± 5.2
356.76 K	2998.5 ± 5.3
